Melting point data for 31 compounds are collected here from patent publication US6855710B2, “Substituted indolines with an inhibitory effect on various kinases and complexes of CDKs” (Boehringer Ingelheim Pharma KG, priority 1998, dated 2005).

The melting point is the temperature, or range, at which the solid turns liquid.

For `O=C1Nc2ccc([N+](=O)[O-])cc2/C1=C(/Nc1ccc(NCCN2CCOCC2)cc1)c1ccccc1` [Example 332, (Z)-3-{1-[4-(2-morpholinoethylamino)-phenylamino]-1-phenyl-methylidene}-5-nitro-2-indolinone], the melting point is 253 °C.

In turn, `O=CN(CCN1CCOCC1)c1ccc(N/C(=C2\C(=O)Nc3ccc([N+](=O)[O-])cc32)c2ccccc2)cc1` [Example 333, (Z)-3-{1-[4-(N-(2-morpholinoethyl)-N-formyl-amino)-phenylamino]-1-phenyl-methylidene}-5-nitro-2-indolinone] yielded a melting point of 207 °C.

Turning to `CC(=O)N(CCN1CCOCC1)c1ccc(N/C(=C2\C(=O)Nc3ccc([N+](=O)[O-])cc32)c2ccccc2)cc1` [Example 334, (Z)-3-{1-[4-(N-(2-morpholinoethyl)-N-acetyl-amino)-phenylamino]-1-phenyl-methylidene}-5-nitro-2-indolinone], the melting point came out at 229 °C.

`CCC(=O)N(CCN1CCOCC1)c1ccc(N/C(=C2\C(=O)Nc3ccc([N+](=O)[O-])cc32)c2ccccc2)cc1` [Example 335, (Z)-3-{1-[4-(N-(2-morpholinoethyl)-N-propionyl-amino)-phenylamino]-1-phenyl-methylidene}-5-nitro-2-indolinone] showed a melting point of 232 °C.

Take `CC(C)C(=O)N(CCN1CCOCC1)c1ccc(N/C(=C2\C(=O)Nc3ccc([N+](=O)[O-])cc32)c2ccccc2)cc1` [Example 336, (Z)-3-{1-[4-(N-(2-morpholinoethyl)-N-isopropylcarbonyl-amino)-phenylamino]-1-phenyl-methylidene}-5-nitro-2-indolinone]: the melting point came out at 254 °C.

The compound `CCCC(=O)N(CCN1CCOCC1)c1ccc(N/C(=C2\C(=O)Nc3ccc([N+](=O)[O-])cc32)c2ccccc2)cc1` [Example 337, (Z)-3-{1-[4-(N-(2-morpholinoethyl)-N-propylcarbonyl-amino)-phenylamino]-1-phenyl-methylidene}-5-nitro-2-indolinone] had a melting point of 228 °C.

On to `CN(C)CCNc1ccc(N/C(=C2\C(=O)Nc3ccccc32)c2ccccc2)cc1` [Example 338, (Z)-3-{1-[4-(2-dimethylamino-ethylamino)-phenylamino]-1-phenyl-methylidene}-2-indolinone], for which the melting point was 258 to 260 °C.

In turn, `CN(C)CCN(C=O)c1ccc(N/C(=C2\C(=O)Nc3ccccc32)c2ccccc2)cc1` [Example 339, (Z)-3-{1-[4-(N-(2-dimethylaminoethyl)-N-formyl-amino)-phenylamino]-1-phenyl-methylidene}-2-indolinone] displayed a melting point of 246 to 248 °C.

The compound `CC(=O)N(CCN(C)C)c1ccc(N/C(=C2\C(=O)Nc3ccccc32)c2ccccc2)cc1` [Example 340, (Z)-3-{1-[4-(N-(2-dimethylaminoethyl)-N-acetyl-amino)-phenylamino]-1-phenyl-methylidene}-2-indolinone] displayed a melting point of 197 to 199 °C.

In turn, `CCC(=O)N(CCN(C)C)c1ccc(N/C(=C2\C(=O)Nc3ccccc32)c2ccccc2)cc1` [Example 341, (Z)-3-{1-[4-(N-(2-dimethylaminoethyl)-N-propionyl-amino)-phenylamino]-1-phenyl-methylidene}-2-indolinone] had a melting point of 272 to 274 °C.

`CC(C)C(=O)N(CCN(C)C)c1ccc(N/C(=C2\C(=O)Nc3ccccc32)c2ccccc2)cc1` [Example 342, (Z)-3-{1-[4-(N-(2-dimethylaminoethyl)-N-isopropylcarbonyl-amino)-phenylamino]-1-phenyl-methylidene}-2-indolinone]: the melting point lay within 280 to 282 °C.

Take `CCCC(=O)N(CCN(C)C)c1ccc(N/C(=C2\C(=O)Nc3ccccc32)c2ccccc2)cc1` [Example 343, (Z)-3-{1-[4-(N-(2-dimethylaminoethyl)-N-propylcarbonyl-amino)-phenylamino]-1-phenyl-methylidene}-2-indolinone]: the melting point is 268 to 270 °C.

Compound `CC(=O)N(CCCN(C)C)c1ccc(N/C(=C2\C(=O)Nc3ccccc32)c2ccccc2)cc1` [Example 344, (Z)-3-{1-[4-(N-(3-dimethylaminopropyl)-N-acetyl-amino)-phenylamino]-1-phenyl-methylidene}-2-indolinone] gave a melting point of 227 °C.

Take `O=C1Nc2ccccc2/C1=C(/Nc1ccc(NCCN2CCOCC2)cc1)c1ccccc1` [Example 346, (Z)-3-{1-[4-(2-morpholinoethylamino)-phenylamino]-1-phenyl-methylidene}-2-indolinone]: the melting point was 257 °C.

Compound `O=CN(CCN1CCOCC1)c1ccc(N/C(=C2\C(=O)Nc3ccccc32)c2ccccc2)cc1` [Example 347, (Z)-3-{1-[4-(N-(2-morpholinoethyl)-N-formyl-amino)-phenylamino]-1-phenyl-methylidene}-2-indolinone] gave a melting point of 218 °C.

In the case of `CCC(=O)N(CCN1CCOCC1)c1ccc(N/C(=C2\C(=O)Nc3ccccc32)c2ccccc2)cc1` [Example 349, (Z)-3-{1-[4-(N-(2-morpholinoethyl)-N-propionyl-amino)-phenylamino]-1-phenyl-methylidene}-2-indolinone], the melting point amounted to 228 °C.

The compound `CC(C)C(=O)N(CCN1CCOCC1)c1ccc(N/C(=C2\C(=O)Nc3ccccc32)c2ccccc2)cc1` [Example 350, (Z)-3-{1-[4-(N-(2-morpholinoethyl)-N-isopropylcarbonyl-amino)-phenylamino]-1-phenyl-methylidene}-2-indolinone] came in with a melting point of 239 °C.

Consider `CCCC(=O)N(CCN1CCOCC1)c1ccc(N/C(=C2\C(=O)Nc3ccccc32)c2ccccc2)cc1` [Example 351, (Z)-3-{1-[4-(N-(2-morpholinoethyl)-N-propylcarbonyl-amino)-phenylamino]-1-phenyl-methylidene}-2-indolinone], for which the melting point is 219 °C.

Compound `CCOC(=O)CN(C(C)=O)c1ccc(N/C(=C2\C(=O)Nc3ccccc32)c2ccccc2)cc1` [Example 352, (Z)-3-{1-[4-(N-ethoxycarbonylmethyl-N-acetyl-amino)-phenylamino]-1-phenyl-methylidene}-2-indolinone] registered a melting point of 244 to 247 °C.

Take `CC(=O)N(CC(=O)O)c1ccc(N/C(=C2\C(=O)Nc3ccccc32)c2ccccc2)cc1` [Example 353, (Z)-3-{1-[4-(N-carboxymethyl-N-acetyl-amino)-phenylamino]-1-phenyl-methylidene}-2-indolinone]: the melting point is 276 °C (dec.).

As for `CNC(=O)CN(C(C)=O)c1ccc(N/C(=C2\C(=O)Nc3ccccc32)c2ccccc2)cc1` [Example 354, (Z)-3-{1-[4-(N-methylaminocarbonylmethyl-N-acetyl-amino)-phenylamino]-1-phenyl-methylidene}-2-indolinone], the melting point is 270 °C (dec.).

Compound `CC(=O)N(CC(=O)N(C)C)c1ccc(N/C(=C2\C(=O)Nc3ccccc32)c2ccccc2)cc1` [Example 355, (Z)-3-{1-[4-(N-dimethylaminocarbonylmethyl-N-acetyl-amino)-phenylamino]-1-phenyl-methylidene}-2-indolinone] came in with a melting point of 264 to 268 °C.

In the case of `CCOC(=O)CN(C(=O)CC)c1ccc(N/C(=C2\C(=O)Nc3ccccc32)c2ccccc2)cc1` [Example 356, (Z)-3-{1-[4-(N-ethoxycarbonylmethyl-N-propionyl-amino)-phenylamino]-1-phenyl-methylidene}-2-indolinone], the melting point lay in the range of 229 to 232 °C.

Turning to `CCC(=O)N(CC(=O)O)c1ccc(N/C(=C2\C(=O)Nc3ccccc32)c2ccccc2)cc1` [Example 357, (Z)-3-{1-[4-(N-carboxymethyl-N-propionyl-amino)-phenylamino]-1-phenyl-methylidene}-2-indolinone], the melting point is 270 °C (dec.).

For `CCC(=O)N(CC(=O)NC)c1ccc(N/C(=C2\C(=O)Nc3ccccc32)c2ccccc2)cc1` [Example 358, (Z)-3-{1-[4-(N-methylaminocarbonylmethyl-N-propionyl-amino)-phenylamino]-1-phenyl-methylidene}-2-indolinone], the melting point stood at 268 °C.

`CCC(=O)N(CC(=O)N(C)C)c1ccc(N/C(=C2\C(=O)Nc3ccccc32)c2ccccc2)cc1` [Example 359, (Z)-3-{1-[4-(N-dimethylaminocarbonylmethyl-N-propionyl-amino)-phenylamino]-1-phenyl-methylidene}-2-indolinone]: the melting point was in the range of 274 to 277 °C.

`CCOC(=O)CN(C(=O)c1ccccc1)c1ccc(N/C(=C2\C(=O)Nc3ccccc32)c2ccccc2)cc1` [Example 360, (Z)-3-{1-[4-(N-ethoxycarbonylmethyl-N-benzoyl-amino)-phenylamino]-1-phenyl-methylidene}-2-indolinone] came in with a melting point of 209 to 211 °C.

Turning to `O=C(O)CN(C(=O)c1ccccc1)c1ccc(N/C(=C2\C(=O)Nc3ccccc32)c2ccccc2)cc1` [Example 361, (Z)-3-{1-[4-(N-carboxymethyl-N-benzoyl-amino)-phenylamino]-1-phenyl-methylidene}-2-indolinone], the melting point is 277 °C (dec.).

Compound `CNC(=O)CN(C(=O)c1ccccc1)c1ccc(N/C(=C2\C(=O)Nc3ccccc32)c2ccccc2)cc1` [Example 362, (Z)-3-{1-[4-(N-methylaminocarbonylmethyl-N-benzoyl-amino)-phenylamino]-1-phenyl-methylidene}-2-indolinone] returned a melting point of 260 to 262 °C.

As for `CN(C)C(=O)CN(C(=O)c1ccccc1)c1ccc(N/C(=C2\C(=O)Nc3ccccc32)c2ccccc2)cc1` [Example 363, (Z)-3-{1-[4-(N-dimethylaminocarbonylmethyl-N-benzoyl-amino)-phenylamino]-1-phenyl-methylidene}-2-indolinone], the melting point lay within 284 to 287 °C.

The compound `CN(C(=O)CN1CCCC1)c1ccc(N/C(=C2\C(=O)Nc3ccc([N+](=O)[O-])cc32)c2ccccc2)cc1` [Example 364, (Z)-3-{1-[4-(N-(pyrrolidin-1-ylmethylcarbonyl)-N-methyl-amino)-phenylamino]-1-phenyl-methylidene}-5-nitro-2-indolinone] returned a melting point of 246 to 247 °C.
